Values of other authors as cited in patent US20030144259A1, “Breast cancer hormonal therapy” (priority 2000, published 2003).

Conditions: human, in vivo; cited from earlier work

**Q.** Which dizziness does the source give for CCC1(c2ccc(N)cc2)CCC(=O)NC1=O (stereo not shown) [aminoglutethimide] here?
**A.** 15%

**Q.** What about the lethargy of the same compound?
**A.** 36%

**Q.** And the nausea and vomiting?
**A.** 10%

**Q.** What about the “patients requiring discontinuation of drug” value of the same compound?
**A.** about 5%

**Q.** What about the “patients with side effects” value of the same compound?
**A.** about 35%

**Q.** What about the severe myelosuppression of the same compound?
**A.** less than 1%

**Q.** And the transient maculopapular rash?
**A.** 25%
